Experimental data: patent US20050079604A1, “Method for improving functionality of tissue constructs” (priority 2001, published 2005)

Assays:
[1] = tested on: smooth muscle cells present in reconstructed human vascular media; experiment: Immunolabeled differentiation markers of smooth muscle cells in RHVM; format: cell-based; settings: FIG. 10
Protocol: (§1) Reconstructed human vascular media (RHVM) were prepared for the control tissue construct (not aligned) as described in Example I. The RHVM used for this example were treated as follow: RHVM cultured in medium described above represent the control condition (non-treated RHVM) and RHVM supplemented with cell proliferation inhibitors, heparin or olomoucine (treated RHVM).

[2] = tested on: reconstructed human vascular media (RHVM); experiment: Contraction of RHVM rings in response to cumulative doses of histamine (myograph, isometric tension); format: cell-based; settings: 21 days of maturation, FIG. 9
Protocol: as §1
To assess the contractile function of RHVM which were treated or not (control condition), RHVM rings of 5-7 mm in length were removed from the tubular support used for culture after 21 days of maturation. Rings were mounted in a myograph and challenged in the presence of cumulative doses of histamine, a vasoactive agent. Isometric tension generated by RHVM contraction was directly recorded via a force transducer (Kilster-Morse, DSG BE4).

## heparin
[1]
  expression of differentiation markers in cells cultured with the inhibitor vs without: increased
[2]; higher doses of histamine, 10^−5 and 10^−4 M
  contraction of RHVM cultured with the cell proliferation inhibitor vs control RHVM: significantly greater contraction
[2]; low dose of histamine (10^−6 M)
  contraction of RHVM cultured with the cell proliferation inhibitor vs non-treated RHVM: no significant difference of contraction
